# In patent US6872805B2 (Bristol-Myers Squibb Company, priority 2000, dated 2005):
# Biological target: HCV NS3/4A protease complex (Hepatitis C virus genotype 1a, UniProt P27958, C1454S/C1711G)
# Experiment: Recombinant HCV NS3/4A protease complex FRET peptide assay (strain not stated)
# Format: biochemical
# Settings: IC50, NS3/4A protease enzyme assay, strain not stated; activity ranges
# Source text: The purpose of this in vitro assay was to measure the inhibition of HCV NS3 protease complexes, derived from the BMS, H77C or J416S strains, as described below, by compounds of the present invention.
# Serum from an HCV-infected patient was obtained from Dr. T. Wright, San Francisco Hospital. An engineered full-length cDNA template of the HCV genome (BMS strain) was constructed from DNA fragments obtained by reverse transcription-PCR (RT-PCR) of serum RNA and using primers selected on the basis of homology between other genotype 1a strains. […] The infectious clones, H77C (1a genotype) and J4L6S (1b genotype) were obtained from R. Purcell (NIH) and the sequences are published in genebank (AAB67036, see Yanagi, M., Purcell, R. H., Emerson, S. U. and Bukh, J. Proc. Natl. Acad. Sci. U.S.A. 94(16),8738-8743 (1997); AF054247, see Yanagi, M., St Claire, M., Shapiro, M., Emerson, S. U., Purcell, R. H. and Bukh, J, Virology 244 (1), 161-172. (1998)).
# The BMS, H77C and J4L6S strains were used for production of recombinant NS3/4A protease complexes. DNA encoding the recombinant HCV NS3/4A protease complex (amino acid 1027 to 1711) for these strains were manipulated as described by P. Gallinari et al. (see Gallinari P, Paolini C, Brennan D, Nardi C, Steinkuhler C, De Francesco R. Biochemistry. 38(17):5620-32, (1999)). Briefly, a three-lysine solubilizing tail was added at the 3′-end of the NS4A coding region. The cysteine in the P1 position of the NS4A-NS4B cleavage site (amino acid 1711) was changed to a glycine to avoid the proteolytic cleavage of the lysine tag. Furthermore, a cysteine to serine mutation was introduced by PCR at amino acid position 1454 to prevent the autolytic cleavage in the NS3 helicase domain. The variant DNA fragment was cloned in the pET21b bacterial expression vector and the NS3/4A complex was expressed in E. coli BL21 (DE3) following the protocol described by P. Gallinari et al. (see Gallinari P, Brennan D, Nardi C, Brunetti M, Tomei L, Steinkuhler C, De Francesco R., J Virol. 72(8):6758-69 (1998)) with modifications. Briefly, NS3/4A expression was induced with 0.5 mM IPTG for 22 hr at 20° C. […] The cells were resuspended in lysis buffer (10 mL/g) consisting of 25 mM HEPES, pH 7.5, 20% glycerol, 500 mM NaCl, 0.5% Triton-X100, 1 ug/ml lysozyme, 5 mM MgCl2, 1 ug/ml DNaseI 5 mM β-Mercaptoethanol (βME), Protease inhibitor—EDTA free, homogenized and incubated for 20 mins at 4° C. The homogenate was sonicated and clarified by ultra-centrifugation at 235000 g for 1 hr at 4° C. Imidazole was added to the supernatant to a final concentration of 15 mM and the pH adjusted to 8.0. The crude protein extract was loaded on a Ni-NTA column pre-equilibrated with buffer B (25 mM HEPES, pH 8.0, 20% glycerol, 500 mM NaCl, 0.5% Triton-X100, 15 mM imidazole, 5 mM βME). The sample was loaded at a flow rate of 1 mL/min. The column was washed with 15 column volumes of buffer C (same as buffer B except with 0.2% Triton-X100). The protein was eluted with 5 column volumes of 200 mM Imidazole in buffer.
# NS3/4A protease complex-containing fractions were pooled and loaded on a desalting column Superdex-S200 pre-equilibrated with buffer D (25 mM HEPES, pH 7.5, 20% glycerol, 300 mM NaCl, 0.2% Triton-X100, 10 mM βME). Sample was loaded at a flow rate of 1 mL/min. NS3/4A protease complex-containing fractions were pooled and concentrated to approximately 0.5 mg/ml.
# Chain of HCV NS3/4A protease complex (P27958 1027-1711, stated change not applied): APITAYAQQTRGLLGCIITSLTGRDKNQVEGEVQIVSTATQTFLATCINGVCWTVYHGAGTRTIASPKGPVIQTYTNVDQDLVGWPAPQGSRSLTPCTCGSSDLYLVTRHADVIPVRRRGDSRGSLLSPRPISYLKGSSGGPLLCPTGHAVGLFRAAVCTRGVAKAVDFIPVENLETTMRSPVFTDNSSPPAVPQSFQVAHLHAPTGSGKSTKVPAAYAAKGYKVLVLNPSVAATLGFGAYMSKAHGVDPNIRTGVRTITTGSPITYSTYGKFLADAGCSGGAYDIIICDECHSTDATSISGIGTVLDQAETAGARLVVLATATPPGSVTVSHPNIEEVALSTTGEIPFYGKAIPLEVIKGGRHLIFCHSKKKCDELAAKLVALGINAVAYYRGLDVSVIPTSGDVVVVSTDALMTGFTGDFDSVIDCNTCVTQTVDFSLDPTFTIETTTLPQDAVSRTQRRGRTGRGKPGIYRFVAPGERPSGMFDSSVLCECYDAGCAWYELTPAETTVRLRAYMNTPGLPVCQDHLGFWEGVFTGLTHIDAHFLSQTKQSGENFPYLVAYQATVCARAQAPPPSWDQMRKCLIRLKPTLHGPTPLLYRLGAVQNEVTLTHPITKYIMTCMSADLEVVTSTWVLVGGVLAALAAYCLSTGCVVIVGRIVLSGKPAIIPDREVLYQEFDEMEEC
# Chain of HCV NS3/4A protease complex (P27958 1027-1711, stated change not applied): as above
row,Compound,IC50
1,C=CC1CC1(NC(=O)[C@@H]1C[C@@H](Oc2cc(-c3ccccc3)nc3cc(OC)ccc23)CN1C(=O)[C@H](CC(C)C)NC(=O)OC(C)(C)C)C(=O)NS(=O)(=O)C(F)(F)F (stereo partly shown) [Compound 84],< 5000 nM
2,CCC1CC1(NC(=O)[C@@H]1C[C@@H](Oc2cc(-c3ccccc3)nc3cc(OC)ccc23)CN1C(=O)[C@H](CC1CCCCC1)NC(=O)OC(C)(C)C)C(=O)NS(C)(=O)=O (stereo partly shown) [Compound 75],< 500 nM
3,CCC1CC1(NC(=O)[C@@H]1C[C@@H](Oc2cc(-c3ccccc3)nc3cc(OC)ccc23)CN1C(=O)[C@H](CC1CCCCC1)NC(=O)OC(C)(C)C)C(=O)NS(C)(=O)=O (stereo partly shown) [Compound 74],< 5000 nM
4,C=CC1CC1(NC(=O)[C@@H]1C[C@@H](Oc2cc(-c3ccccc3)nc3cc(OC)ccc23)CN1C(=O)[C@H](CC1CCCCC1)NC(=O)OC(C)(C)C)C(=O)NS(=O)(=O)C(F)(F)F (stereo partly shown) [Compound 81],< 5000 nM
5,C=CC1CC1(NC(=O)[C@@H]1C[C@@H](Oc2cc(-c3ccccc3)nc3cc(OC)ccc23)CN1C(=O)[C@H](CC(C)C)NC(=O)OC(C)(C)C)C(=O)NS(C)(=O)=O (stereo partly shown) [Compound 90],< 500 nM
6,C=CC1C[C@]1(NC(=O)[C@@H]1C[C@@H](Oc2cc(-c3ccccc3)nc3cc(OC)ccc23)CN1C(=O)[C@@H](NC(=O)OC(C)(C)C)C(C)(C)C)C(=O)NS(=O)(=O)c1ccc(OC(F)(F)F)cc1 (stereo partly shown) [Compound 66],< 500 nM
7,C=CC1C[C@]1(NC(=O)[C@@H]1C[C@@H](Oc2cc(-c3ccccc3)nc3cc(OC)ccc23)CN1C(=O)C(NC(=O)OC(C)(C)C)C(C)(C)C)C(=O)NS(=O)(=O)c1c(C(C)C)cc(C(C)C)cc1C(C)C (stereo partly shown) [Compound 64],< 5000 nM
8,C=CC1CC1(NC(=O)[C@@H]1C[C@@H](Oc2cc(-c3ccccc3)nc3cc(OC)ccc23)CN1C(=O)[C@@H](NC(=O)OC(C)(C)C)C(C)(C)C)C(=O)NS(C)(=O)=O (stereo partly shown) [Compound 88],< 500 nM
9,CCC1CC1(NC(=O)[C@@H]1C[C@@H](Oc2cc(-c3ccccc3)nc3cc(OC)ccc23)CN1C(=O)[C@H](CC1CCCCC1)NC(=O)OC(C)(C)C)C(=O)NS(=O)(=O)C1CC1 (stereo partly shown) [Compound 78],< 50 nM
10,C=CC1CC1(NC(=O)[C@@H]1C[C@@H](Oc2cc(-c3ccccc3)nc3cc(OC)ccc23)CN1C(=O)[C@@H](NC(=O)OC(C)(C)C)C(C)C)C(=O)NS(=O)(=O)C(F)(F)F (stereo partly shown) [Compound 85],< 500 nM
11,C=CC1CC1(NC(=O)[C@@H]1C[C@@H](Oc2cc(-c3ccccc3)nc3cc(OC)ccc23)CN1C(=O)[C@@H](NC(=O)OC(C)(C)C)C(C)C)C(=O)NS(=O)(=O)C1CC1 (stereo partly shown) [Compound 92],< 50 nM
12,C=CC1C[C@]1(NC(=O)[C@@H]1C[C@@H](Oc2cc(-c3ccccc3)nc3cc(OC)ccc23)CN1C(=O)[C@@H](NC(=O)OC(C)(C)C)C(C)(C)C)C(=O)NS(=O)(=O)c1ccc(-c2ccccc2)cc1 (stereo partly shown) [Compound 65],< 500 nM
13,"C=CC1CC1(NC(=O)OC(C)(C)C)C(=O)N1C[C@H](Oc2cc(-c3ccccc3)nc3cc(OC)ccc23)CC1C(=O)N[C@]1(C(=O)NS(=O)(=O)C2CC2)C[C@H]1C=C (stereo partly drawn) [Compound 97, {1S-[2S-(1R-cyclopropanesulfonylamino-carbonyl-2S-vinylcyclopropylcarbamoyl)-4R-(7-methoxy-2-phenyl-quinolin-4-yloxy)-pyrrolidine-1-carbonyl]-2-vinyl-cyclopropyl}-carbamic acid tert-butyl ester]",< 500 nM
14,COc1ccc2c(O[C@@H]3C[C@@H](C(=O)NC4(C(=O)NS(=O)(=O)C5CC5)CC45CCC5)N(C(=O)[C@@H](NC(=O)OC(C)(C)C)C(C)C)C3)cc(-c3ccccc3)nc2c1 (stereo partly shown) [Compound 138],< 5000 nM
15,C=CC1CC1(NC(=O)[C@@H]1C[C@@H](Oc2cc(-c3ccccc3)nc3cc(OC)ccc23)CN1C(=O)[C@H](CC1CCCCC1)NC(=O)OC(C)(C)C)C(=O)NS(=O)(=O)C(F)(F)F (stereo partly shown) [Compound 82],< 50000 nM
16,C=CC1CC1(NC(=O)[C@@H]1C[C@@H](Oc2cc(-c3ccccc3)nc3cc(OC)ccc23)CN1C(=O)[C@H](CC1CCCCC1)NC(=O)OC(C)(C)C)C(=O)NS(C)(=O)=O (stereo partly shown) [Compound 76],< 500 nM
17,CCC1CC1(NC(=O)[C@@H]1C[C@@H](Oc2cc(-c3ccccc3)nc3cc(OC)ccc23)CN1C(=O)[C@H](CC1CCCCC1)NC(=O)OC(C)(C)C)C(=O)NS(=O)(=O)C1CC1 (stereo partly shown) [Compound 77],< 50000 nM
18,CCC1C[C@]1(NC(=O)[C@@H]1C[C@@H](Oc2cc(-c3ccccc3)nc3cc(OC)ccc23)CN1C(=O)[C@@H](NC(=O)OC(C)(C)C)C(C)C)C(=O)NS(C)(=O)=O (stereo partly shown) [Compound 1],< 500 nM
19,C=CC1C[C@]1(NC(=O)[C@@H]1C[C@@H](Oc2cc(-c3ccccc3)nc3cc(OC)ccc23)CN1C(=O)[C@@H](NC(=O)OC(C)(C)C)C(C)(C)C)C(=O)N[S+]([O-])C(C)(C)C (stereo partly shown) [Compound 62],< 5000 nM
20,C=CC1CC1(NC(=O)[C@@H]1C[C@@H](Oc2cc(-c3ccccc3)nc3cc(OC)ccc23)CN1C(=O)[C@H](CC1CCCCC1)NC(=O)OC(C)(C)C)C(=O)NS(=O)(=O)C1CC1 (stereo partly shown) [Compound 79],< 500 nM
21,CCC1CC1(NC(=O)[C@@H]1C[C@@H](Oc2cc(-c3ccccc3)nc3cc(OC)ccc23)CN1C(=O)[C@H](CC1CCCCC1)NC(=O)OC(C)(C)C)C(=O)NS(=O)(=O)C(F)(F)F (stereo partly shown) [Compound 80],< 5000 nM
22,"COc1ccc2c(OC3C[C@@H](C(=O)NC4(C(=O)NS(=O)(=O)C5CC5)CC45CCCC5)N(C(=O)[C@@H](NC(=O)OC(C)(C)C)C(C)(C)C)C3)cc(-c3ccccc3)nc2c1 (stereo partly shown) [Compound 139, {1-[2-(1-Cyclopropanesulfonylaminocarbonyl-spiro[2.4]hept-1-ylcarbamoyl)-4-(7-methoxy-2-phenyl-quinolin-4-yloxy)-pyrrolidine-1-carbonyl]-2,2-dimethyl-propyl}carbamic acid tert-butyl ester]",< 5000 nM
23,C=CC1CC1(NC(=O)[C@@H]1C[C@@H](Oc2cc(-c3ccccc3)nc3cc(OC)ccc23)CN1C(=O)[C@H](CC(C)C)NC(=O)OC(C)(C)C)C(=O)NS(=O)(=O)C1CC1 (stereo partly shown) [Compound 93],< 50 nM

# Same assay, conditions: IC50, separated isomers of Compound 97; strain not stated
row,Compound,IC50
1,"C=CC1CC1(NC(=O)OC(C)(C)C)C(=O)N1C[C@H](Oc2cc(-c3ccccc3)nc3cc(OC)ccc23)CC1C(=O)N[C@]1(C(=O)NS(=O)(=O)C2CC2)C[C@H]1C=C (stereo partly drawn) [higher RF isomer, {1S-[2S-(1R-cyclopropanesulfonylamino-carbonyl-2S-vinylcyclopropylcarbamoyl)-4R-(7-methoxy-2-phenyl-quinolin-4-yloxy)-pyrrolidine-1-carbonyl]-2-vinyl-cyclopropyl}-carbamic acid tert-butyl ester]",250 nM
2,"C=CC1CC1(NC(=O)OC(C)(C)C)C(=O)N1C[C@H](Oc2cc(-c3ccccc3)nc3cc(OC)ccc23)CC1C(=O)N[C@]1(C(=O)NS(=O)(=O)C2CC2)C[C@H]1C=C (stereo partly drawn) [lower RF isomer, {1S-[2S-(1R-cyclopropanesulfonylamino-carbonyl-2S-vinylcyclopropylcarbamoyl)-4R-(7-methoxy-2-phenyl-quinolin-4-yloxy)-pyrrolidine-1-carbonyl]-2-vinyl-cyclopropyl}-carbamic acid tert-butyl ester]",24 nM
